Assay results as given in the OligoGym collection.
HELM strings list units from the 5' end as sugar, base in round brackets, then linkage (d deoxyribose, r ribose, m 2'-O-methyl, p phosphodiester). Strings are as the collection lists them; they lack the last nucleoside at the 3' end of the tested compound. [moe] = 2'-O-(2-methoxyethyl) (MOE); [sp] = phosphorothioate linkage; [m5C] = 5-methylcytosine

Biological target: SMN2
Test: mouse, dose not given
Details: ASO

With “RNA1{[moe]([m5C])[sp].[moe](A)[sp].[moe]([m5C])[sp].[moe](T)[sp].[moe](T)[sp].[moe](T)[sp].[moe]([m5C])[sp].[moe](A)[sp].[moe](T)[sp].[moe](A)[sp].[moe](A)[sp].[moe](T)[sp].[moe](G)[sp].[moe]([m5C])[sp].[moe](T)p.[moe](G)[sp].[moe](G)}$$$$ (last 3' nucleoside missing)” the 3 h FOB score was 0 score 0-7.
For “RNA1{[moe]([m5C])[sp].[moe](A)[sp].[moe]([m5C])[sp].[moe](T)[sp].[moe](T)[sp].[moe](T)[sp].[moe]([m5C])[sp].[moe](A)[sp].[moe](T)[sp].[moe](A)[sp].[moe](A)[sp].[moe](T)[sp].[moe](G)[sp].[moe]([m5C])p.[moe](T)p.[moe](G)[sp].[moe](G)}$$$$ (last 3' nucleoside missing)”, the 3 h FOB score was 0 score 0-7.
“RNA1{[moe]([m5C])[sp].[moe](A)[sp].[moe]([m5C])[sp].[moe](T)[sp].[moe](T)[sp].[moe](T)[sp].[moe]([m5C])[sp].[moe](A)[sp].[moe](T)[sp].[moe](A)[sp].[moe](A)[sp].[moe](T)[sp].[moe](G)p.[moe]([m5C])[sp].[moe](T)[sp].[moe](G)[sp].[moe](G)}$$$$ (last 3' nucleoside missing)” gave a 3 h FOB score of 0 score 0-7.
Substance “RNA1{[moe]([m5C])[sp].[moe](A)[sp].[moe]([m5C])[sp].[moe](T)[sp].[moe](T)[sp].[moe](T)[sp].[moe]([m5C])[sp].[moe](A)[sp].[moe](T)[sp].[moe](A)[sp].[moe](A)[sp].[moe](T)[sp].[moe](G)p.[moe]([m5C])[sp].[moe](T)p.[moe](G)[sp].[moe](G)}$$$$ (last 3' nucleoside missing)” has a 3 h FOB score of 0 score 0-7.
Substance “RNA1{[moe]([m5C])[sp].[moe](A)[sp].[moe]([m5C])[sp].[moe](T)[sp].[moe](T)[sp].[moe](T)[sp].[moe]([m5C])[sp].[moe](A)[sp].[moe](T)[sp].[moe](A)[sp].[moe](A)[sp].[moe](T)p.[moe](G)p.[moe]([m5C])[sp].[moe](T)[sp].[moe](G)[sp].[moe](G)}$$$$ (last 3' nucleoside missing)” has a 3 h FOB score of 0 score 0-7.
Substance “RNA1{[moe]([m5C])[sp].[moe](A)[sp].[moe]([m5C])[sp].[moe](T)[sp].[moe](T)[sp].[moe](T)[sp].[moe]([m5C])[sp].[moe](A)[sp].[moe](T)[sp].[moe](A)[sp].[moe](A)[sp].[moe](T)p.[moe](G)p.[moe]([m5C])p.[moe](T)p.[moe](G)[sp].[moe](G)}$$$$ (last 3' nucleoside missing)” has a 3 h FOB score of 0 score 0-7.
“RNA1{[moe]([m5C])[sp].[moe](A)[sp].[moe]([m5C])[sp].[moe](T)[sp].[moe](T)[sp].[moe](T)[sp].[moe]([m5C])[sp].[moe](A)[sp].[moe](T)[sp].[moe](A)[sp].[moe](A)p.[moe](T)[sp].[moe](G)[sp].[moe]([m5C])[sp].[moe](T)[sp].[moe](G)[sp].[moe](G)}$$$$ (last 3' nucleoside missing)” was tested, and the 3 h FOB score was 0.25 score 0-7.
For “RNA1{[moe]([m5C])[sp].[moe](A)[sp].[moe]([m5C])[sp].[moe](T)[sp].[moe](T)[sp].[moe](T)[sp].[moe]([m5C])[sp].[moe](A)[sp].[moe](T)[sp].[moe](A)[sp].[moe](A)p.[moe](T)[sp].[moe](G)[sp].[moe]([m5C])[sp].[moe](T)p.[moe](G)[sp].[moe](G)}$$$$ (last 3' nucleoside missing)”, the 3 h FOB score was 0 score 0-7.
“RNA1{[moe]([m5C])[sp].[moe](A)[sp].[moe]([m5C])[sp].[moe](T)[sp].[moe](T)[sp].[moe](T)[sp].[moe]([m5C])[sp].[moe](A)[sp].[moe](T)[sp].[moe](A)[sp].[moe](A)p.[moe](T)p.[moe](G)p.[moe]([m5C])p.[moe](T)[sp].[moe](G)[sp].[moe](G)}$$$$ (last 3' nucleoside missing)” gave a 3 h FOB score of 0 score 0-7.
“RNA1{[moe]([m5C])[sp].[moe](A)[sp].[moe]([m5C])[sp].[moe](T)[sp].[moe](T)[sp].[moe](T)[sp].[moe]([m5C])[sp].[moe](A)[sp].[moe](T)[sp].[moe](A)p.[moe](A)p.[moe](T)[sp].[moe](G)[sp].[moe]([m5C])[sp].[moe](T)[sp].[moe](G)[sp].[moe](G)}$$$$ (last 3' nucleoside missing)” was tested, and the 3 h FOB score was 1 score 0-7.
In the case of “RNA1{[moe]([m5C])[sp].[moe](A)[sp].[moe]([m5C])[sp].[moe](T)[sp].[moe](T)[sp].[moe](T)[sp].[moe]([m5C])[sp].[moe](A)[sp].[moe](T)p.[moe](A)[sp].[moe](A)[sp].[moe](T)[sp].[moe](G)[sp].[moe]([m5C])[sp].[moe](T)[sp].[moe](G)[sp].[moe](G)}$$$$ (last 3' nucleoside missing)”, the 3 h FOB score is reported as 0 score 0-7.
“RNA1{[moe]([m5C])[sp].[moe](A)[sp].[moe]([m5C])[sp].[moe](T)[sp].[moe](T)[sp].[moe](T)[sp].[moe]([m5C])[sp].[moe](A)[sp].[moe](T)p.[moe](A)[sp].[moe](A)[sp].[moe](T)[sp].[moe](G)[sp].[moe]([m5C])[sp].[moe](T)p.[moe](G)[sp].[moe](G)}$$$$ (last 3' nucleoside missing)” gave a 3 h FOB score of 0 score 0-7.
Work on “RNA1{[moe]([m5C])[sp].[moe](A)[sp].[moe]([m5C])[sp].[moe](T)[sp].[moe](T)[sp].[moe](T)[sp].[moe]([m5C])[sp].[moe](A)[sp].[moe](T)p.[moe](A)p.[moe](A)p.[moe](T)p.[moe](G)[sp].[moe]([m5C])[sp].[moe](T)[sp].[moe](G)[sp].[moe](G)}$$$$ (last 3' nucleoside missing)” yielded a 3 h FOB score of 0 score 0-7.
Work on “RNA1{[moe]([m5C])[sp].[moe](A)[sp].[moe]([m5C])[sp].[moe](T)[sp].[moe](T)[sp].[moe](T)[sp].[moe]([m5C])[sp].[moe](A)p.[moe](T)p.[moe](A)[sp].[moe](A)[sp].[moe](T)[sp].[moe](G)[sp].[moe]([m5C])[sp].[moe](T)[sp].[moe](G)[sp].[moe](G)}$$$$ (last 3' nucleoside missing)” yielded a 3 h FOB score of 0 score 0-7.
“RNA1{[moe]([m5C])[sp].[moe](A)[sp].[moe]([m5C])[sp].[moe](T)[sp].[moe](T)[sp].[moe](T)[sp].[moe]([m5C])[sp].[moe](A)p.[moe](T)p.[moe](A)p.[moe](A)[sp].[moe](T)[sp].[moe](G)[sp].[moe]([m5C])[sp].[moe](T)[sp].[moe](G)[sp].[moe](G)}$$$$ (last 3' nucleoside missing)” showed a 3 h FOB score of 1 score 0-7.
For “RNA1{[moe]([m5C])[sp].[moe](A)[sp].[moe]([m5C])[sp].[moe](T)[sp].[moe](T)[sp].[moe](T)[sp].[moe]([m5C])[sp].[moe](A)p.[moe](T)p.[moe](A)p.[moe](A)p.[moe](T)[sp].[moe](G)[sp].[moe]([m5C])[sp].[moe](T)[sp].[moe](G)[sp].[moe](G)}$$$$ (last 3' nucleoside missing)”, the 3 h FOB score was 0 score 0-7.
Work on “RNA1{[moe]([m5C])[sp].[moe](A)[sp].[moe]([m5C])[sp].[moe](T)[sp].[moe](T)[sp].[moe](T)[sp].[moe]([m5C])p.[moe](A)[sp].[moe](T)[sp].[moe](A)[sp].[moe](A)[sp].[moe](T)[sp].[moe](G)[sp].[moe]([m5C])[sp].[moe](T)[sp].[moe](G)[sp].[moe](G)}$$$$ (last 3' nucleoside missing)” yielded a 3 h FOB score of 0 score 0-7.
“RNA1{[moe]([m5C])[sp].[moe](A)[sp].[moe]([m5C])[sp].[moe](T)[sp].[moe](T)[sp].[moe](T)[sp].[moe]([m5C])p.[moe](A)[sp].[moe](T)[sp].[moe](A)[sp].[moe](A)[sp].[moe](T)[sp].[moe](G)[sp].[moe]([m5C])[sp].[moe](T)p.[moe](G)[sp].[moe](G)}$$$$ (last 3' nucleoside missing)” gave a 3 h FOB score of 0 score 0-7.
Work on “RNA1{[moe]([m5C])[sp].[moe](A)[sp].[moe]([m5C])[sp].[moe](T)[sp].[moe](T)[sp].[moe](T)[sp].[moe]([m5C])p.[moe](A)p.[moe](T)p.[moe](A)p.[moe](A)[sp].[moe](T)[sp].[moe](G)[sp].[moe]([m5C])[sp].[moe](T)[sp].[moe](G)[sp].[moe](G)}$$$$ (last 3' nucleoside missing)” yielded a 3 h FOB score of 0 score 0-7.
For “RNA1{[moe]([m5C])[sp].[moe](A)[sp].[moe]([m5C])[sp].[moe](T)[sp].[moe](T)[sp].[moe](T)[sp].[moe]([m5C])p.[moe](A)p.[moe](T)p.[moe](A)p.[moe](A)p.[moe](T)[sp].[moe](G)[sp].[moe]([m5C])[sp].[moe](T)[sp].[moe](G)[sp].[moe](G)}$$$$ (last 3' nucleoside missing)”, the 3 h FOB score was 0 score 0-7.
Work on “RNA1{[moe]([m5C])[sp].[moe](A)[sp].[moe]([m5C])[sp].[moe](T)[sp].[moe](T)[sp].[moe](T)[sp].[moe]([m5C])p.[moe](A)p.[moe](T)p.[moe](A)p.[moe](A)p.[moe](T)p.[moe](G)[sp].[moe]([m5C])[sp].[moe](T)[sp].[moe](G)[sp].[moe](G)}$$$$ (last 3' nucleoside missing)” yielded a 3 h FOB score of 0 score 0-7.
Substance “RNA1{[moe]([m5C])[sp].[moe](A)[sp].[moe]([m5C])[sp].[moe](T)[sp].[moe](T)[sp].[moe](T)p.[moe]([m5C])p.[moe](A)[sp].[moe](T)[sp].[moe](A)[sp].[moe](A)[sp].[moe](T)[sp].[moe](G)[sp].[moe]([m5C])[sp].[moe](T)[sp].[moe](G)[sp].[moe](G)}$$$$ (last 3' nucleoside missing)” has a 3 h FOB score of 0 score 0-7.
For “RNA1{[moe]([m5C])[sp].[moe](A)[sp].[moe]([m5C])[sp].[moe](T)[sp].[moe](T)[sp].[moe](T)p.[moe]([m5C])p.[moe](A)p.[moe](T)p.[moe](A)p.[moe](A)p.[moe](T)p.[moe](G)[sp].[moe]([m5C])[sp].[moe](T)[sp].[moe](G)[sp].[moe](G)}$$$$ (last 3' nucleoside missing)”, the 3 h FOB score was 0 score 0-7.
Substance “RNA1{[moe]([m5C])[sp].[moe](A)[sp].[moe]([m5C])[sp].[moe](T)[sp].[moe](T)p.[moe](T)[sp].[moe]([m5C])[sp].[moe](A)[sp].[moe](T)[sp].[moe](A)[sp].[moe](A)[sp].[moe](T)[sp].[moe](G)[sp].[moe]([m5C])[sp].[moe](T)[sp].[moe](G)[sp].[moe](G)}$$$$ (last 3' nucleoside missing)” has a 3 h FOB score of 0.5 score 0-7.
